# Where “and” joins values, the source holds several entries; their conditions need not be identical. Equal values may be shown once. Entries after “also recorded” stand apart in the source; their conditions may differ. Square brackets hold non-standard residues; d marks the D form. pGlu = O=C1CC[C@@H](C(=O)O)N1
# Legend:
# [1] = system: middle cerebral artery occlusion; assay: Middle cerebral artery occlusion model; assay type: in vivo, Sprague Dawley rats; details: 2 μg/kg bw i.v. upon reperfusion, then three injections at 2-hour intervals
# Protocol: Sprague Dawley rats (8 per group) are subjected to the following MCAO protocol Surgery was performed in accordance with the teachings of Brines et al, 2000, PNAS USA 97:10526-10531 (hereby incorporated by reference in its entirety. Briefly, the rats are anesthetized with chloral hydrate (400 mg/kg-bw, i.p.), the carotid arteries were visualized, and the right carotid was occluded by two sutures and severed. A burr hole adjacent and rostral to the right orbit allowed visualization of the middle cerebral artery (“MCA”), which was cauterized distal to the rhinal artery. To produce a penumbra (border zone) surrounding this fixed MCA lesion, the contralateral carotid artery was occluded for 1 hour by using […] provided by a fine forceps and then re-opened.
# The rats were administered saline, Peptide ID as a single i.v. dose (2 μg/kg bw), or Peptide IX, […], SEQ ID NO: 301), a scrambled version of Peptide IC, SEQ ID NO: 281, as a single Lv. dose (2 μg/kg bw) upon reperfusion, followed by three additional injections at 2-hour intervals. For assessment of injury, rats are subjected to behavioral testing or the volume of the lesion is determined by tetrazolium staining of brain sections performed 24 hours post surgery in accordance with the previously noted protocol.
# The volume of the lesion was then determined by tetrazolium staining of brain sections performed 24 hours post surgery.
# Rats were also tested in a foot fault behavioral protocol. Rats were tested on an elevated stainless steel grid floor 30 cm×30 cm with grid size of 30 mm according to the protocol of Markgraf et al., 1992, Brain Research 575:238-246 (hereby incorporated by reference in its entirety). When placed on the grid, a rat would attempt to move around and occasionally place a foot, rather than on the grid, through a grid opening (“foot fault”). The number of foot faults was measured for a 1 minute period.
# The number of foot faults is indicative of the cognitive impairment of the rats due to the MCAO, the fewer the number of foot faults the less cognitive impairment.
# [2] = system: full-thickness skin wounds; assay: Full thickness punch biopsy model of wound healing; assay type: in vivo, Sprauge-Dawley rats; details: 24 nmol/kg of bw s.c. daily for 10 days; FIG. 8
# Protocol: A full thickness punch biopsy model of wound healing was used to evaluate Peptide ID. In this experiment, 3.5 mm-diameter full-thickness skin wounds were placed at the corners of a 3 cm-wide square on the shaved and depilated scapular region of Sprauge-Dawley rats. Peptide ID (24 nmol/kg of bw, 9 rats) or PBS (9 rats) was administered subcutaneously daily for 10 days.
# 9 L gliosarcoma cells = assay: 9 L gliosarcoma implantation model, delayed treatment; assay type: in vivo, CD Fisher rats
# Protocol: In accordance with the accordance with the protocol of Lampson et al. Cancer Res. 53:176-82:1993 described above, CD Fisher rats were implanted with 9 L gliosarcoma cells transfected with the LacZ gene by use of a Hamilton syringe. 100,000 cells in 10 microliters were injected into the right caudate.
# ID with a short plasma half life, another receiving Peptide IW (pegylated form of Peptide IC) and the third group received saline. Peptides were given at a dose of 25 nmole/kg body weight. Three weeks later, the animals were sacrificed and serial 1 mm thick coronal sections cut through the brain and incubated with 5-bromo-4-chloro-3-indolyl-[beta]-D-galactopyranoside (Xgal). Tumor cells (containing the LacZ gene) metabolized Xgal into a dark blue stain, localizing the extent of tumor. High resolution digital images were obtained and the areas stained blue determined using planimetric methodology. Data is expressed as total area of tumor infiltration.
# histamine [3] = assay: Histamine induced ear inflammation; assay type: in vivo, Sprague Dawley rats; details: 30 μg/kg IV; 15, 30, 45 and sixty minutes; versus saline; FIG. 15
# Protocol: The ability of peptides useful in the current therapeutic method to antagonize the pro-inflammatory affects of histamine were evaluated in a mouse model of histamine-induced edema disclosed in Brand et al. “Tea tree oil reduces histamine-induced oedema in murine ears,” Inflamm. Res. 51 (2002) 283-289. Briefly, 24 Sprague Dawley rats (male, 250 gm) were used in the study. Prior to the histamine challenge, each rat was anesthetized and the thickness of the rat's ear was measured using a spring loaded micrometer. 20 ul of 60 mg/ml solution of histamine diphosphate was injected intradermally into an ear of the rat and 30 seconds later the rat received either (1) 30 μg/kg Peptide ID IV (12 rats) or (2) Saline IV (12 rats). Then 20 ul of 60 mg/ml solution of histamine diphosphate was injected intradermally to the rat's other ear. The thickness of the rats ears was then measured using a caliper at 15, 30, 45 and sixty minutes following the histamine challenge.
# histamine [4] = assay: Histamine induced wheal formation, persistence after single dose; assay type: in vivo, rats; details: FIG. 16
# Protocol: The ability of Peptide ID to reduce plasma extravasation (wheal) induced by intradermal histamine administration was evaluated in rats. Animals were pre-administered Evans Blue dye (which binds tightly to albumin) to provide a visual marker of vascular leak. To determine the persistence of peptide IG activity, at various time periods after Peptide ID administration (30 μg/kg, administered intravenously), an intradermal dose of 0.12 μg histamine was administered, and the extent of dye leak quantitated by planimetry performed on digital photographs obtained 15 minutes following histamine placement, a time at which wheal surface area is greatest. Each animal was tested at only a single time point to avoid influence of histamine administration on subsequent responses.
# histamine [5] = assay: Histamine induced wheal formation, peptide given at time of challenge; assay type: in vivo, Sprague-Dawley rats; details: 30 μg/kg at time of histamine challenge
# Protocol: Under isoflurane anesthesia, 12 Sprague-Dawley rats' abdomens were shaved and depilated. Each rat was then injected intravenously (via internal jugular) with a dilute solution of Evans Blue (30 mg/ml in saline, 1 ml/kg bw). After 5 minutes, 6 small doses of histamine (Histamine diphosphate, 20 microliters administered intradermally) in a rectangular pattern on each rat's abdomen. After fifteen minutes, when the wheal reaches its maximum size the wheal is photographed and the blister area was determined by digital planimetry. To test the efficacy of various peptides, the peptide of interest was administered to the rats intravenously shortly after the histamine injection.
# Rats received either saline, Peptide IY (30 μg/kg), Peptide ID (30 μg/kg), or Peptide IW (30 μg/kg) at time of histamine challenge.
# Rats received either saline, peptide JA (30 μg/kg), peptide IZ (30 μg/kg), peptide IW (30 μg/kg) or peptide ID (30 μg/kg) at time of histamine challenge.
sequence,measurement,setting,value
"UEQLERALNSS ([pGlu]EQLERALNSS-OH; also: acetate/ammonium mixed salt) [Peptide ID, first glutamine replaced with pyroglutamate]",infarct volume (volume of lesion),"[1]; 24 hours post surgery, tetrazolium staining",225±20 mm^3
same,number of foot faults in 1 minute period,"[1]; after MCAO, FIG. 5",11.2±1.1 foot faults
same,area of open wound over treatment,[2],faster healing; also recorded: healed more rapidly
same,tumor size (total area of tumor infiltration),"9 L gliosarcoma cells; 25 nmole/kg i.p. daily starting two weeks after implantation, three weeks, FIG. 13, 14","smaller than the saline group, it was not significantly different; also recorded: reduced the size of tumor"
same,tumor size,"9 L gliosarcoma cells; daily treatment begun immediately after implantation, FIG. 14",substantially smaller tumors; also recorded: reduction in size of the tumor
same,ear thickness (edema) after histamine challenge,histamine [3],reduced the amount of edema; also recorded: less inflammation
same,persistence of the suppressive effect on wheal formation,histamine [4]; following a single dose of 30 μg/kg intravenously,up to 24 hours
same,wheal formation (plasma extravasation),histamine [4]; single dose 30 μg/kg intravenously before 0.12 μg intradermal histamine,suppress wheal formation
same,wheal area (lesion area),histamine [5]; FIG. 18,about 0.35 cm^2
same,wheal area (lesion area),histamine [5]; FIG. 19,~0.35 cm^2 and 0.4 cm^2

# Source: patent publication US9580465B2, “Tissue protective peptides and peptide analogs for preventing and treating diseases and disorders associated with tissue damage” (ARAIM PHARMACEUTICALS, INC., priority 2008, dated 2017)
